Results from PubChem BioAssay (NCI).
Several values for one entry are separate records, joined by “and”; a condition that tells them apart may be missing. Equal values may be shown once.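 Values below derive from 48-hour exposures of cells grown in 96-well plates, with endpoints linearly interpolated between the two concentrations bracketing the appropriate inhibition level. Here, GI50 denotes the concentration required for 50% inhibition of growth. At the TGI there is no net growth.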

Legend:
Assay in all cases: inhibition of tumour cell growth, NCI panel, 48 h
[1] = tested on: HOP-92 NSCLC
[2] = tested on: HS 578T breast
[3] = tested on: HT29 colon
[4] = tested on: MDA-MB-231 breast
[5] = tested on: MOLT-4 leukemia
[6] = tested on: NCI-H23 lung
[7] = tested on: RPMI-8226 leukemia
[8] = tested on: SF-268 CNS
[9] = tested on: SF-539 CNS
[10] = tested on: SW-620 colon

For `OC[C@H]1C[C@](O)(c2ccc(Cl)cc2)[C@@H](c2ccc(Cl)cc2)O1`, the GI50 [1] was 16.8 µM, the TGI [1] was 45.6 µM and the GI50 [2] was 18 µM. It also gave a TGI [2] of 45.6 µM, a GI50 [3] of 23.7 µM and a TGI [3] of 50.1 µM. For the same compound, the GI50 [4] was 19.6 µM, the TGI [4] was 46.9 µM and the GI50 [5] was 17.6 µM. It also gave a TGI [5] of 60.1 µM, a GI50 [6] of 24.8 µM and a TGI [6] of 58.2 µM. The GI50 [7] was 13.7 µM, the TGI [7] was 34.9 µM and the GI50 [8] was 26.8 µM. For the same compound, the TGI [8] was > 100 µM, the GI50 [9] was 23.3 µM and the TGI [9] was 53.8 µM. For the same compound, the GI50 [10] was 27.3 µM and the TGI [10] was > 100 µM.
`Cn1cc(CO)c2c1C(=O)C=C(N1CC1)C2=O` gave a GI50 [1] of 0.898 µM, a TGI [1] of 4 µM and a GI50 [2] of 0.017 µM. The TGI [2] was 0.0472 µM, the GI50 [3] was < 0.0189 µM and the TGI [3] was > 57.3 µM. For the same compound, the GI50 [4] was 2.66 µM, the TGI [4] was 5.96 µM and the GI50 [5] was 2.64 µM. The TGI [5] was > 100 µM, the GI50 [6] was < 0.01 µM and the TGI [6] was < 0.0215 µM. The GI50 [7] was < 0.01 µM, the TGI [7] was 0.192 µM and the GI50 [8] was < 0.0154 µM. For the same compound, the TGI [8] was 2.35 µM, the GI50 [9] was < 0.01 µM and the TGI [9] was < 0.01 µM. The GI50 [10] was < 0.01 µM and the TGI [10] was > 31.6 µM.
`COc1ccc(CN2C(=O)/C(=C\C(=O)c3ccc(OCCN4CCCCC4)cc3)c3ccccc32)cc1` showed a GI50 [1] of 1.64 µM, a TGI [1] of 3.89 µM and a GI50 [2] of 3.79 µM. For the same compound, the TGI [2] was 25.5 µM, the GI50 [3] was 1.8 µM and the TGI [3] was 3.57 µM. It also gave a GI50 [4] of 2.15 µM, a TGI [4] of 4.56 µM and a GI50 [5] of 2.26 µM. The TGI [5] was 6.26 µM, the GI50 [6] was 6.68 µM and the TGI [6] was 21.6 µM. It also gave a GI50 [7] of 2.31 µM, a TGI [7] of 5.62 µM and a GI50 [8] of 4.03 µM. The TGI [8] was 19.5 µM, the GI50 [9] was 1.9 µM and the TGI [9] was 3.67 µM. The GI50 [10] was 1.74 µM and the TGI [10] was 3.51 µM.
In the case of `CS(=O)(=O)Nc1ccc2c(c1)oc(=O)c1ccccc12`, the TGI [1] is reported as > 100 µM, the TGI [2] is reported as > 100 µM and the TGI [3] is reported as > 100 µM. The TGI [4] was > 100 µM, the TGI [5] was > 100 µM and the TGI [6] was > 100 µM. For the same compound, the TGI [7] was > 100 µM, the TGI [8] was > 100 µM and the TGI [9] was > 100 µM. The TGI [10] was > 100 µM.
For `O=C(Nc1nc2ccc(C(F)(F)F)cc2s1)c1cc(Cl)ccc1O`, the GI50 [1] was 0.116 µM, the TGI [1] was 0.489 µM and the GI50 [2] was 1.23 µM. For the same compound, the TGI [2] was > 100 µM, the GI50 [3] was 2.1 µM and the TGI [3] was 74.7 µM. It also gave a GI50 [4] of 0.704 µM, a TGI [4] of 3.75 µM and a GI50 [5] of 0.684 µM. The TGI [5] was 13.4 µM, the GI50 [6] was 0.367 µM and the TGI [6] was 9.53 µM. The GI50 [7] was 0.276 µM, the TGI [7] was 2 µM and the GI50 [8] was 0.497 µM. For the same compound, the TGI [8] was > 100 µM, the GI50 [9] was 1.49 µM and the TGI [9] was > 100 µM. It also gave a GI50 [10] of 0.878 µM and a TGI [10] of 36.3 µM.
Compound `O=C(CNc1ccc(Cl)cc1)Nc1ccc(-c2nc3ccccc3s2)cc1` has a GI50 [1] of 1.91 µM, a TGI [1] of 5.17 µM and a GI50 [2] of 7.87 µM. It also gave a TGI [2] of 47.6 µM, a GI50 [3] of 3.8 µM and a TGI [3] of 11.4 µM. It also gave a GI50 [4] of 3.67 µM, a TGI [4] of 14.7 µM and a GI50 [5] of 0.811 µM. For the same compound, the TGI [5] was > 26.6 µM, the GI50 [6] was 2.9 µM and the TGI [6] was 8.8 µM. The GI50 [7] was 2.82 µM, the TGI [7] was 16 µM and the GI50 [8] was 3.38 µM. The TGI [8] was 10.8 µM, the GI50 [9] was 4.93 µM and the TGI [9] was 9.79 µM. The GI50 [10] was 2.15 µM and the TGI [10] was 4.73 µM.
`CCCCCCCCCCCCOC1C(C(COC2OC(C3COC(C)(C)O3)C3OC(C)(C)OC23)NC(=O)Nc2ccc(C(=O)O)cc2)OC2OC(C)(C)OC21` (centres undefined) was tested, and the GI50 [1] was 2.55 µM, the TGI [1] was 8.04 µM and the GI50 [2] was 3.46 µM. For the same compound, the TGI [2] was 13.2 µM, the GI50 [3] was 2.01 µM and the TGI [3] was 6.88 µM. For the same compound, the GI50 [4] was 1.99 µM, the TGI [4] was 4.98 µM and the GI50 [5] was 3.29 µM. The TGI [5] was 8.34 µM, the GI50 [6] was 2.64 µM and the TGI [6] was 6.83 µM. For the same compound, the GI50 [7] was 1.69 µM, the TGI [7] was 4.29 µM and the GI50 [8] was 3.37 µM. It also gave a TGI [8] of 13.7 µM, a GI50 [9] of 1.72 µM and a TGI [9] of 3.39 µM. It also gave a GI50 [10] of 3.26 µM and a TGI [10] of 11 µM.
`O=C1/C(=C/c2ccc(Br)cc2)COc2ccc(O)c(O)c21` gave a GI50 [1] of 1.26 µM, a TGI [1] of 5.49 µM and a GI50 [2] of 1.54 µM. The TGI [2] was 6.77 µM, the GI50 [3] was 2.3 µM and the TGI [3] was 5.79 µM. It also gave a GI50 [4] of 0.682 µM, a TGI [4] of 2.27 µM and a GI50 [5] of 0.431 µM. For the same compound, the TGI [5] was > 100 µM, the GI50 [6] was 1.62 µM and the TGI [6] was 3.65 µM. The GI50 [7] was 0.221 µM, the TGI [7] was 1.02 µM and the GI50 [8] was 1.26 µM. It also gave a TGI [8] of 3.4 µM, a GI50 [9] of 0.436 µM and a TGI [9] of 1.19 µM. It also gave a GI50 [10] of 0.671 µM and a TGI [10] of 2.22 µM.
Work on `O=C1NC(=O)C(c2cnc3ccccn23)=C1c1cn2c3c(cc(F)cc13)CN(C(=O)N1CCCCC1)CC2` yielded a GI50 [1] of 14.8 µM, a TGI [1] of 38.1 µM and a GI50 [2] of 0.0115 µM. For the same compound, the TGI [2] was 60.9 µM, the GI50 [3] was 0.723 µM and the TGI [3] was 20 µM. It also gave a GI50 [4] of 11.4 µM, a TGI [4] of 33.1 µM and a GI50 [5] of 3.41 µM. The TGI [5] was > 81.4 µM, the GI50 [6] was 17.2 µM and the TGI [6] was 52.3 µM. For the same compound, the GI50 [7] was 15.9 µM, the TGI [7] was 46.6 µM and the GI50 [8] was 13.4 µM. It also gave a TGI [8] of 39.4 µM, a GI50 [9] of 2.74 µM and a TGI [9] of 24.4 µM. The GI50 [10] was 14.2 µM and the TGI [10] was 45.8 µM.
In the case of `CCN(CC)CCCC(CNc1ccnc2cc(Cl)ccc12)c1ccc(Cl)cc1` (centres undefined), the GI50 [1] is reported as 1.44 µM and 1.16 µM, the TGI [1] is reported as 3.12 µM and 2.78 µM and the GI50 [2] is reported as 1.76 µM and 1.97 µM. For the same compound, the TGI [2] was 3.82 µM and 4.46 µM, the GI50 [3] was 0.484 µM and 0.304 µM and the TGI [3] was 2.35 µM and 1.28 µM. For the same compound, the GI50 [4] was 1.41 µM and 1.54 µM, the TGI [4] was 3.21 µM and 3.32 µM and the GI50 [5] was 1.56 µM and 1.24 µM. The TGI [5] was 4.91 µM and 4.22 µM, the GI50 [6] was 1.87 µM and 2.01 µM and the TGI [6] was 4.42 µM and 5.93 µM. The GI50 [7] was 1.36 µM and 0.59 µM, the TGI [7] was 4.79 µM and 2.69 µM and the GI50 [8] was 1.56 µM and 1.71 µM. For the same compound, the TGI [8] was 3.31 µM and 4.55 µM, the GI50 [9] was 1.23 µM and 1.52 µM and the TGI [9] was 2.67 µM and 3.07 µM. The GI50 [10] was 1.43 µM and 1.55 µM and the TGI [10] was 3.02 µM and 3.35 µM.
With `O/N=C/C1C(OCc2ccccc2)C(OCc2ccccc2)C(OCc2ccccc2)CN1Cc1ccccc1` (centres undefined) the GI50 [1] was 13.6 µM and 1.99 µM, the TGI [1] was 33.1 µM and 9.16 µM and the GI50 [2] was 21.5 µM and 3.75 µM. For the same compound, the TGI [2] was 96.6 µM and 88.5 µM, the GI50 [3] was 10.7 µM and 3.59 µM and the TGI [3] was 78.7 µM and > 100 µM. The TGI [4] was 93.7 µM, the TGI [5] was 31.4 µM and the GI50 [6] was 14.1 µM and 2.78 µM. The TGI [6] was 41.7 µM and 26.6 µM, the TGI [7] was > 100 µM and the TGI [8] was > 100 µM. The TGI [9] was > 100 µM and the TGI [10] was > 100 µM.
`COc1cc(C2CC(c3cccc(Br)c3)=NN2C(C)=O)cc(OC)c1OC` (centres undefined) gave a GI50 [1] of 17 µM, a TGI [1] of 83.8 µM and a GI50 [2] of 0.397 µM. For the same compound, the TGI [2] was > 100 µM, the GI50 [3] was 0.284 µM and the TGI [3] was 14.9 µM. The GI50 [4] was 1.67 µM, the TGI [4] was > 46 µM and the GI50 [5] was 0.368 µM. The TGI [5] was 5.05 µM, the GI50 [6] was 1.66 µM and the TGI [6] was > 81.3 µM. The GI50 [7] was 0.181 µM, the TGI [7] was 0.67 µM and the GI50 [8] was 0.785 µM. It also gave a TGI [8] of 83.3 µM, a GI50 [9] of 0.265 µM and a TGI [9] of 2.62 µM. For the same compound, the GI50 [10] was 0.309 µM and the TGI [10] was > 100 µM.
With `[Cl][Hg][c]1cc(Br)cc(Br)c1` the GI50 [1] was 1.7 µM, the TGI [1] was 3.45 µM and the GI50 [2] was 1.58 µM. It also gave a TGI [2] of 7.07 µM, a GI50 [3] of 2.62 µM and a TGI [3] of 10.6 µM. It also gave a GI50 [4] of 1.79 µM, a TGI [4] of 3.89 µM and a GI50 [5] of 1.77 µM. It also gave a TGI [5] of 5.41 µM, a GI50 [6] of 2.65 µM and a TGI [6] of 9.02 µM. It also gave a GI50 [7] of 1.81 µM, a TGI [7] of 4.86 µM and a GI50 [8] of 1.76 µM. For the same compound, the TGI [8] was 4.28 µM, the GI50 [9] was 1.65 µM and the TGI [9] was 3.31 µM. It also gave a GI50 [10] of 1.74 µM and a TGI [10] of 3.52 µM.
